In publication PMC11183114, “Structural basis of S-adenosylmethionine-dependent allosteric transition from active to inactive states in methylenetetrahydrofolate reductase” (Nature Communications, 2024):
Where a chain is given by its changes, count along the chain named. Where two headings read alike, the source gives them in different places. One block for each compound: values may come before it.

How the values were obtained:
[1] = target: T1, methylenetetrahydrofolate reductase (cMTHFR) (Thermochaetoides thermophila, UniProt G0S5U9); assay: NADH-menadione oxidoreductase assay, purified enzyme ([…] NADH); assay type: biochemical
T1 construct: gene CTHT_0033700; cMTHFR^wt
T1 sequence (G0S5U9 1-614): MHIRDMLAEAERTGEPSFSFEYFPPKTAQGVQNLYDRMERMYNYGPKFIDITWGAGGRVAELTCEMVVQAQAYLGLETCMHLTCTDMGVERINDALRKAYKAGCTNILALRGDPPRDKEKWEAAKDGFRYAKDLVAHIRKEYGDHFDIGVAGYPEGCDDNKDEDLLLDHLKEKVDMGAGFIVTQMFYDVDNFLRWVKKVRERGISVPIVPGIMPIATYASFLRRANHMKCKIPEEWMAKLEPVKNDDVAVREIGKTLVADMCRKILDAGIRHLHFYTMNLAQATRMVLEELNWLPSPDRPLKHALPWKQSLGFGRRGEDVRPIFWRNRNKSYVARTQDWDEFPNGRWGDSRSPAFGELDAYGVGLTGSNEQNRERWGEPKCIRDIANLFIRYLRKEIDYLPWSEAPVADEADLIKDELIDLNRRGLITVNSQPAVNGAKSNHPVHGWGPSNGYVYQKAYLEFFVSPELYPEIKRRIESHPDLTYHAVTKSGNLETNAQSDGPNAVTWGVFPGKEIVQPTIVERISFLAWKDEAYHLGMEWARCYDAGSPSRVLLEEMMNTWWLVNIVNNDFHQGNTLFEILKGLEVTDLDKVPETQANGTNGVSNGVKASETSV

[2] = target: T2, methylenetetrahydrofolate reductase (cMTHFR) (Thermochaetoides thermophila, UniProt G0S5U9, E21Q/L393M/V516F); assay: X-ray crystal structure, […] Å (R-state); assay type: binding
T2 construct: gene CTHT_0033700; cMTHFR^E21Q, L393M, V516F, surface lysines reductively methylated
T2 sequence (G0S5U9 1-614 E21Q/L393M/V516F): T1 sequence (G0S5U9 1-614) with E21Q, L393M, V516F

[3] = target: T3, methylenetetrahydrofolate reductase (cMTHFR) (Thermochaetoides thermophila, UniProt G0S5U9, R315A); assay: X-ray crystal structure, […] Å (T-state); assay type: binding; parameters: gene CTHT_0033700; cMTHFR^R315A
T3 sequence (G0S5U9 1-614 R315A): T1 sequence (G0S5U9 1-614) with R315A

[4] = target: T1, methylenetetrahydrofolate reductase (cMTHFR); assay: NADPH-menadione oxidoreductase assay, purified enzyme ([…] NADPH); assay type: biochemical
[5] = target: T1, methylenetetrahydrofolate reductase (cMTHFR); assay: UV-Vis titration (FAD absorbance quench at […] nm, Hill fit, coefficient […]); […] also inhibits NADPH-menadione oxidoreductase activity by […]; assay type: binding
[6] = target: T3, methylenetetrahydrofolate reductase (cMTHFR); assay: X-ray crystal structure, […] Å (T-state); assay type: binding; parameters: gene CTHT_0033700; cMTHFR^R315A, homodimer; two AdoMet per regulatory domain
Source text: Unexpectedly, two molecules of AdoMet were found

NADH-menadione oxidoreductase assay, purified enzyme (100 μM NADH) [1]: 44 µM/min
Compound: NC(=O)C1=CN([C@@H]2O[C@H](COP(=O)(O)OP(=O)(O)OC[C@H]3O[C@@H](n4cnc5c(N)ncnc54)[C@H](O)[C@@H]3O)[C@@H](O)[C@H]2O)C=CC1 [NADH]

Compound: Cc1cc2nc3c(=O)[nH]c(=O)nc-3n(C[C@H](O)[C@H](O)[C@H](O)COP(=O)(O)OP(=O)(O)OC[C@H]3O[C@@H](n4cnc5c(N)ncnc54)[C@H](O)[C@@H]3O)c2cc1C [FAD]
X-ray crystal structure, 3.4 Å (R-state) [2]: Electron density for FAD was observed in every catalytic active site.
X-ray crystal structure, 2.8 Å (T-state) [3]: the si-face of FAD is occluded by Tyr361 on the C-terminal region of the linker, which forms a π-stacking interaction

NADPH-menadione oxidoreductase assay, purified enzyme (100 μM NADPH) [4]: 120 µM/min
Compound: NC(=O)C1=CN([C@@H]2O[C@H](COP(=O)(O)OP(=O)(O)OC[C@H]3O[C@@H](n4cnc5c(N)ncnc54)[C@H](OP(=O)(O)O)[C@@H]3O)[C@@H](O)[C@H]2O)C=CC1 [NADPH]

Compound: C[S@@+](CC[C@H](N)C(=O)[O-])C[C@H]1O[C@@H](n2cnc3c(N)ncnc32)[C@H](O)[C@@H]1O [AdoMet]
Kd [5]: ~18.8 µM
X-ray crystal structure, 2.8 Å (T-state) [6]: The regulatory domain was found to bind AdoMet, as expected for the T-state. Unexpectedly, two molecules of AdoMet were found
